Laboratory results reported in PMC8929364, “Metopimazine is primarily metabolized by a liver amidase in humans” (Pharmacology Research & Perspectives, 2021).
“And” between values parts separate entries of the source, which are not always exact repeats. Equal values may be shown once. Read-outs that look alike come from different tables or passages of the source.

How the values were obtained:
[1] = Rat PK study, single oral dose of metopimazine; assay type: in vivo, Sprague Dawley rats; conditions: Sprague Dawley, plasma, 45 mg/kg metopimazine single oral dose, mean (SD)
Experimental: The pharmacokinetics of metopimazine (parent) and metopimazine acid (metabolite) were evaluated in male and female Sprague Dawley rats following a single oral dose of 45 mg/kg metopimazine (free base). Three animals per sex in each dose group were sampled at each timepoint after administration (0.25, 0.5, 1, 2, 4, 8, 12, and 24 h). The rats (rattus norvegicus) were obtained from Envigo RMS, Inc. and were 2 months old. Animals were weighed prior to each dose administration for the purpose of dose calculation. Whole venous blood samples of approximately 0.5 ml were collected from a peripheral vein of animals for determination of exposure to metopimazine and metopimazine acid. Three animals per sex were sampled at each timepoint. Samples were collected in tubes containing K2EDTA with protease inhibitor cocktail (Sigma, # P8340, at ratio 1:100) and placed on ice until processed for plasma by centrifugation under refrigeration for at least 10 min at 1912 x g. After centrifugation, supernatant was removed and stored frozen in a −70°C freezer until analyzed by LC–MS/MS.
(§1) An MRM LC–MS/MS method was developed for MPZ and metopimazine acid (MPZA) in rat, dog, and human plasma. The method was run in reverse phase in positive ion mode. […] D6‐isotopically labeled internal standards were used for each analyte. The following m/z transitions were monitored: metopimazine 446.3 → 141.1 and metopimazine acid 447.2 → 142.1.
(§2) Noncompartmental Pharmacokinetics analysis was performed in Phoenix 64 Winnonlin version 8.1.

[2] = Dog PK study, single oral dose of metopimazine; assay type: in vivo, beagle dogs; conditions: beagle, plasma; Dog (male), 10 mg/kg metopimazine single oral dose, mean (SD)
Experimental: The pharmacokinetics of metopimazine (parent) and metopimazine acid (metabolite) were evaluated in three male, beagle dogs following a single oral dose of 10 mg/kg metopimazine (free base). The dogs were obtained from Marshall BioResources. Animals were weighed prior to each dose administration for the purpose of dose calculation. Metopimazine was administered in size 13 gelatin capsules. Whole venous blood samples of approximately 1.0 ml were collected from a peripheral vein of all animals for determination of metopimazine and metopimazine acid. Samples were collected at the following timepoints: 0.25, 0.5, 1, 2, 4, 8, 12, and 24 h after test article administration. All animals were sampled at each timepoint. Samples were collected in tubes containing K2EDTA and placed on ice until processed for plasma by centrifugation under refrigeration for at least 10 min at 1912 x g. After centrifugation, the supernatant was removed and stored frozen in a −70°C freezer until analyzed by LC–MS/MS.
as §1, §2

[3] = Incubation of MPZ with pooled human liver microsomes (disappearance, metabolite formation); assay type: in vitro ADME; conditions: for Peak area at time 0 / Peak area at time 90 min: metopimazine incubation in human liver microsomes, full scan LC–MS
Experimental: To conduct the metabolic incubation in liver microsomes in the linear range, protein concentration and the reaction time were optimized.
PAR was also used for all positive control compounds.
The degree of disappearance of each analyte was evaluated by comparing the PAR of analyte to IS or concentration in different sampling time points to the PAR of time zero, (t = 0, 100%). The percent of parent remaining values were calculated according to the following equation: %parentremaining=(meanconcentrationorPARateachsamplingtimepoint/meanconcentrationorPARoftimezero)×100

[4] = cited from earlier work
[5] = Clinical study NG100-101: plasma pharmacokinetics of metopimazine and metabolites after a single oral 60 mg dose; assay type: in vivo, healthy adult subjects (human); conditions: for % Drug‐related material MPZA / % Drug‐related material MPZ: based on AUClast; for % Drug‐related material MPZA / percent of total circulating drug‐related material / % Drug‐related material MPZ: single 60 mg dose; for Tmax / AUC(0-t) / Cmax: both sexes, human, po, 60 mg; for percent of total circulating drug‐related material: rough estimate based on AUClast
Experimental: The clinical study was conducted at Biotrial Rennes, in accordance with the Declaration of Helsinki. The study (NG100‐101) was a double‐blind, placebo‐ controlled, ascending single‐ and multiple‐dose study of the safety, tolerability, and pharmacokinetics of metopimazine administered orally to healthy adult subjects. The study protocol, informed consent form, and appropriate related documents were approved by the institutional review board, and all subjects provided written informed consent prior to participation in the study. […] In the morning, after at least 10 h of fasting overnight, eight healthy adult subjects (male or female aged 18 to 45), were orally administered metopimazine (or a matching placebo). […] Blood samples were collected at the following time points: predose and 0.25, 0.5, 0.75, 1, 1.25, 1.5, 2, 3, 4, 6, 8, 12, 18, and 24 h postdose; plasma samples were obtained by centrifugation of the blood samples. A comprehensive safety and pharmacokinetic analysis was performed for each cohort for the SAD and MAD parts of the study and will be presented elsewhere. A fit‐for‐purpose discovery method was used to analyze 4 subjects from the highest single dosed cohort for the presence of metabolites. Plasma concentrations of metopimazine, metopimazine acid and metopimazine sulfoxide were quantified using LC–MS/MS methods. Venous blood samples (6 ml) for the determination of plasma concentrations of MPZ and metabolites (MPZA and MPZS) were drawn by direct venipuncture or via an intravenous catheter into K2EDTA Vacutainer® tubes. It was important to avoid hemolysis during blood collection. After collection, the blood samples were centrifuged within 60 min, at 3000 rotations per minute for 10 min at 5°C. The resulting plasma was separated into 2 equal aliquots of 1000 µl (aliquots A & B) and transferred to polypropylene tubes, which were labeled, frozen within 120 min of blood collection and stored at –70°C until required for bioanalysis. Immediately prior to bioanalysis, samples were thawed and a 200 µl aliquots were removed and analytes extracted using acetonitrile protein precipitation. The extracted samples were analyzed twice, once for quantification of MPZ and MPZA and again for MPZS quantification as described below. An MRM LC–MS/MS method was developed for MPZ and metopimazine acid (MPZA) in rat, dog, and human plasma. The method was run in reverse phase in positive ion mode. […] D6‐isotopically labeled internal standards were used for each analyte. The following m/z transitions were monitored: metopimazine 446.3 → 141.1 and metopimazine acid 447.2 → 142.1. […] An MRM LC–MS/MS method was developed to look for metopimazine sulfoxide (MPZS) in human plasma. The method was run in reverse phase in positive ion mode. The system was identical to what was described above except that a slightly longer column was used, a Supelco Discovery HS F5 100 × 4.0 mm (3 µm) column (Sigma‐Aldrich). A D6‐isotopically labeled internal standards was used for MPS and the m/z transition monitored was 462.3 → 98.1. A calibration curve was generated for the quantification of MPZS in human plasma. Noncompartmental Pharmacokinetics analysis was performed in Phoenix 64 Winnonlin version 8.1.

[6] = plasma, individual subjects, single oral 60 mg MPZ dose

For `CS(=O)(=O)c1ccc2c(c1)N(CCCN1CCC(C(=O)O)CC1)c1ccccc1S2` [MPZA, metopimazine acid], the AUC(0-inf) ([1]; Rat (female)) was 884 ng·h/mL, the Cmax ([1]; Rat (female)) was 110 ng/mL and the Tmax ([1]; Rat (female)) was 3 h. For the same molecule, the AUC(0-inf) ([1]; Rat (male)) was 755 ng·h/mL, the Cmax ([1]; Rat (male)) was 89 ng/mL and the Tmax ([1]; Rat (male)) was 4 h. The AUC(0-inf) [2] was 728 ng·h/mL, the Cmax [2] was 103 ng/mL and the Tmax [2] was 2 h. For the same molecule, the “Peak area at time 0” value [3] was 0, the “Peak area at time 90 min” value [3] was 208 and the “share of circulating drug‐related material in plasma” value ([4]; clinical doses of 20 and 50 mg MPZ, single dose, preprandially or postprandially) was ≥ 80%. The “share of circulating drug‐related material based on AUC exposure” value ([4]; humans) was “over 90%”, the “% Drug‐related material MPZA” value ([5]; individual subjects) was 93.0% and 89.2% and 93.3% and 92.4% and the “% Drug‐related material MPZA” value ([5]; mean of 4 subjects) was 92.0%. It also gave a Tmax ([5]; plasma, 4 subjects, single oral 60 mg MPZ dose, read-out: Tmax, range over subjects) of 1.25 to 3 h, an AUC(0-t) ([5]; plasma, plasma, individual subjects, single oral 60 mg MPZ dose, read-out: MPZA AUClast) of 1590 ng·h/mL and an AUC(0-t) ([5]; plasma, plasma, mean of 4 subjects, single oral 60 mg MPZ dose, read-out: MPZA AUClast) of 2080 ng·h/mL. For the same molecule, the Cmax ([5]; plasma, plasma, mean of 4 subjects, single oral 60 mg MPZ dose, read-out: MPZA C max) was 397 ng/mL, the Tmax ([5]; plasma, plasma, mean of 4 subjects, single oral 60 mg MPZ dose, read-out: MPZA T max) was 1.8 h and the “MPZA AUClast” value [5, 6] was 2506.1 ng‐h/ml and 1941.9 ng‐h/ml and 2265.8 ng‐h/ml. The “MPZA C max” value [5, 6] was 241 ng/mL and 601 ng/mL and 357 ng/mL and 390 ng/mL, the “MPZA T max” value [5, 6] was 3 h and 1.25 h (2×) and 1.5 h and the “percent of total circulating drug‐related material” value [5] was “approximately 90%”.
With `CS(=O)(=O)c1ccc2c(c1)N(CCCN1CCC(C(N)=O)CC1)c1ccccc1S2` [MPZ, metopimazine] the AUC(0-inf) ([1]; Rat (female)) was 13900 ng·h/mL, the Cmax ([1]; Rat (female)) was 1730 ng/mL and the Tmax ([1]; Rat (female)) was 4 h. For the same molecule, the AUC(0-inf) ([1]; Rat (male)) was 8170 ng·h/mL, the Cmax ([1]; Rat (male)) was 1080 ng/mL and the Tmax ([1]; Rat (male)) was 4 h. The AUC(0-inf) [2] was 2600 ng·h/mL, the Cmax [2] was 416 ng/mL and the Tmax [2] was 0.83 h. For the same molecule, the “percent of parent remaining” value ([3]; 1 µM MPZ, HLM 0.5 mg/ml protein, NADPH, 60 min) was 37.2%, the “Peak area at time 0” value [3] was 2373 and the “Peak area at time 90 min” value [3] was 715. For the same molecule, the “blood–brain barrier penetration” value [4] was “does not penetrate the blood–brain barrier”, the absolute bioavailability ([4]; humans, 10 mg dose of MPZ) was “under 20%” and the “% Drug‐related material MPZ” value ([5]; individual subjects) was 6.5% and 9.9% and 6.2% and 6.8%. For the same molecule, the “% Drug‐related material MPZ” value ([5]; mean of 4 subjects) was 7.4%, the Tmax ([5]; plasma, plasma, individual subjects, single oral 60 mg MPZ dose, read-out: MPZ T max) was 3 h and the AUC(0-t) ([5]; plasma, plasma, mean of 4 subjects, single oral 60 mg MPZ dose, read-out: MPZ AUClast) was 172 ng·h/mL. For the same molecule, the Cmax ([5]; plasma, plasma, mean of 4 subjects, single oral 60 mg MPZ dose, read-out: MPZ C max) was 93.9 ng/mL, the Tmax ([5]; plasma, plasma, mean of 4 subjects, single oral 60 mg MPZ dose, read-out: MPZ T max) was 1.4 h and the “MPZ AUClast” value [5, 6] was 111.9 ng‐h/ml and 278.2 ng‐h/ml and 129.4 ng‐h/ml and 167.5 ng‐h/ml. The “MPZ C max” value [5, 6] was 38.9 ng/mL and 203 ng/mL and 75.6 ng/mL and 58.2 ng/mL, the “MPZ T max” value [5, 6] was 0.75 h and 1 h and the “percent of total circulating drug‐related material” value [5] was “less than 10%”.
